How the values were obtained:
[1] = tested on: VCAM1 expression in End.3; assay: PGE2-induced VCAM1 expression in End.3 with selective EP antagonists; format: cell-based, murine; conditions: End.3 cells, PGE2 stimulated
Text: (§1) Inflamed vessels serve as a gateway for MSCs to enter tissue parenchyma. VCAM1 engagement to integrin α4β1 (very late antigen 4; VLA4) mediates shear resistant adhesion of MSCs to the vessel wall that leads to their trans-endothelial migration. […] Similarly, VCAM1 vascular expression was elevated in PGE2 treated mice compared to untreated ones (FIG. 10(B)). Accordingly, shear resistant adhesion of human MSCs was 2-fold higher to PGE2 treated HMVECs than to untreated ones; however, VCAM1 neutralizing antibody abrogated PGE2-induced shear resistant adhesion of MSCs (FIG. 10(C)). […] The white circle in the left panel of FIG. 10(D) indicates infiltrating GFP+ MSCs, and the inset in the upper left corner is a close-up image of the corresponding location. Since VLA4 is the ligand for VCAM1, and conformational change of VLA4 is prerequisite for binding to VCAM1, ligand binding assay using FITC-LDV peptide (which selectively binds to an active form of VLA4) was performed.
PGE2 exerts its action through the binding to 4 types of prostaglandin E receptor (EP1, 2, 3, and 4), which ubiquitously express in various cell types. Human endothelial cells express all 4 types of EP receptors. […] Therefore, without wishing to be bound by theory, an explanation of biopsy-induced metastasis is that systemic availability of PGE2 leads to an elevation of VCAM1 expression in the pulmonary vessels through the EP4 receptor, resulting in increased MSCs tissue infiltration that initiates a provisional PMN in the perivascular space of the lungs (see overview model in FIG. 8).

[2] = tested on: bone marrow-derived primary Mϕ; assay: PGE2-mediated arginase expression in bone marrow-derived primary Mϕ with EP inhibitors; format: cell-based; conditions: Mϕ incubated with PGE2 and selective EP inhibitor
Procedure: (§2) To further identify the biological consequences of abundant PGE2, the bone marrow-derived primary Mϕ was incubated with 10 μM PGE2. […] PGE2 exerts its action through 4 integral membranous E prostanoid receptors (EP1, EP2, EP3, and EP4). The Mϕ was incubated with PGE2 and selective pharmacologic inhibitors against respective prostaglandin E2 receptor (EP2).

[3] = tested on: PGE2 level in biopsied mouse tumors; assay: PGE2 level in biopsied mouse tumors after oral ibuprofen; format: in vivo; conditions: oral administration; to a level equal to the unbiopsied tumor
primary mouse MSCs = assay: Biopsy-WF induced PGE2 release from primary mouse MSCs; format: cell-based; conditions: primary mouse MSCs treated with biopsy-WF
4T1-Luc tumors = assay: Organ metastasis-free survival of 4T1-Luc tumor mice with or without biopsy, oral ibuprofen; format: in vivo
Procedure: To experimentally explore the hypothesis that inhibition of PGE2 biosynthesis by NSAIDs diminishes biopsy-induced metastasis, 4T1-Luc tumors were biopsied or left unbiopsied (n=10 per group) once tumor size reached 100 mm^3. One day later, daily oral ibuprofen (non-selective COX inhibitor) or saline was started (50 mg/kg) for 9 days, until the day before mastectomy. Mice were then monitored for metastasis over the next 3 months. […] In contrast, cellularity and COX2 expression in the biopsy wound were far less in mice that were treated with ibuprofen (FIG. 12(B)).

Py230mCherry tumor = assay: Biopsy-induced lung metastasis in Py230mCherry tumor bearing mice, oral COX2/EP2 inhibitors; format: in vivo; conditions: daily following biopsy, n=15 per group
[4] = tested on: murine endothelial cell line (End.3); assay: PGE2 induction of VCAM1 mRNA in End.3; format: cell-based; conditions: End.3, PGE2 level equivalent to post-biopsy blood
Text: as §1

[5] = tested on: VCAM1 vascular expression; assay: VCAM1 vascular expression in PGE2 treated mice; format: in vivo; conditions: PGE2 treated versus untreated mice
Text: as §1

[6] = tested on: human microvessel endothelial cells (HMVECs); assay: PGE2 induction of VCAM1 mRNA in HMVECs; format: cell-based; conditions: PGE2 level equivalent to post-biopsy blood
Text: as §1

HMVECs = assay: Shear resistant adhesion of human MSCs to HMVECs; format: cell-based; conditions: PGE2 treated HMVECs versus untreated
Text: as §1

pulmonary vessels = assay: Pulmonary vessel permeability (Evans Blue leakage) after intravenous PGE2; format: in vivo, mice; conditions: intravenous injection, versus saline
py230 BC cells = assay: Experimental metastasis model: intravenous PGE2 priming followed by py230 BC cell injection; format: in vivo; conditions: intravenous PGE2 at level equal to post-biopsy blood, versus untreated mice
Text: Wounding triggers a repair cascade by forming a fibrin matrix containing a series of chemo-attractants (e.g., TGF-β, bFGF, PDGF, TNFα, and EGF) that recruit MSCs from bone marrow to the injured site. MSCs produce innumerable growth factors, cyto-chemokines, and metabolites that promote angiogenesis, immunomodulation, and ECM remodeling in order to repair the damaged tissue. […] MSC2 is characterized by a high level of PGE2 release, a potent vasodilater. […] Given the high interstitial pressure coupled with insufficient lymphatic drainage due to superficial lymphatic vessels in solid tumors, soluble factors seep into the circulation from the tumor. Accordingly, PGE2 levels in the blood were 3 times higher in the biopsied mice compared to that in mice bearing unbiopsied tumors or mice without tumor burden (FIG. 6(C)). PGE2 is enzymatically converted from arachidonic acid by the rate-limiting enzyme Cyclooxygenase (COX). COX2 expression is induced by inflammatory stimuli, whereas COX1 is constitutive. […] However, the biologic mechanism by which circulating PGE2 promotes metastasis has heretofore remained unknown.
PGE2-induced hyper-permeation sites indicated by leakage of 40 kDa FITC-dextran (green) coincided with accumulation of SSEA4^+ MSCs (red), a key component of the PMN^51 (FIG. 9(C)).

[7] = tested on: bone marrow-derived primary Mϕ; assay: Quantitative PCR of M2/M1 marker mRNAs in bone marrow-derived primary Mϕ incubated with PGE2; format: cell-based; conditions: 10 μM PGE2
Procedure: as §2

lung = assay: Adoptive transfer of GFP+ MSCs into PGE2 pre-treated mice; format: in vivo
Text: as §1

CCCCc1nn(-c2ccccc2C(F)(F)F)c(=O)n1Cc1ccc(-c2ccccc2S(=O)(=O)NC(=O)c2sccc2C)cc1 [L-161982]
PGE2-induced VCAM1 expression [1]: blocked | PGE2-mediated arginase expression [2]: no inhibitory effect

CC(C)Cc1ccc(C(C)C(=O)O)cc1 (stereo not drawn) [ibuprofen]
PEG2 level in biopsied mouse tumors [3]: significantly reduced | biopsy-WF induced PGE2 release (primary mouse MSCs): equally abrogated | onset of metastasis (4T1-Luc tumors; biopsied 4T1-Luc mice, daily oral 50 mg/kg for 9 days): delayed onset | metastasis incidence (4T1-Luc tumors; biopsied 4T1-Luc mice, daily oral 50 mg/kg for 9 days, monitored 3 months, biopsied without drug 6/10): 2/10 | cellularity and COX2 expression in the biopsy wound (4T1-Luc tumors; histopathology of mastectomized tumors, versus untreated biopsied): far less | effect on metastasis in mice that did not receive biopsy (4T1-Luc tumors; unbiopsied 4T1-Luc mice, daily oral 50 mg/kg): no significant effect

COc1ccc(Br)cc1S(=O)(=O)NC(=O)/C=C/c1ccccc1Cc1ccc2ccccc2c1 [L-798106]
PGE2-mediated arginase expression [2]: no inhibitory effect

COc1ccc2cc(OCC3(C(=O)O)CN(C(=O)c4ccc(F)cc4)C3)ccc2c1 [PF-04418948]
biopsy-induced lung metastasis (Py230mCherry tumor): significantly reduced | PGE2-induced VCAM1 expression [1]: no effect | PGE2-mediated arginase expression [2]: abrogated

COc1ccc2c(c1)c(CC(=O)O)c(C)n2C(=O)c1ccc(Cl)cc1 [indomethacin]
biopsy-WF induced PGE2 release (primary mouse MSCs): equally abrogated

Cc1cc(Cl)ccc1S(=O)(=O)NC[C@H]1C2CCC(CC2)[C@@H]1/C=C\CCCC(=O)O [0N08711]
PGE2-induced VCAM1 expression [1]: no effect | PGE2-mediated arginase expression [2]: no inhibitory effect

CCCCC[C@H](O)/C=C/[C@H]1[C@H](O)CC(=O)[C@@H]1C/C=C\CCCC(=O)O [PGE2, prostaglandin E2]
VCAM1 mRNA expression [4]: induce | VCAM1 vascular expression [5]: elevated | VCAM1 mRNA expression [6]: induce | shear resistant adhesion of human MSCs (HMVECs): 2 fold | vessel permeability (Evans Blue leakage into the lungs) (pulmonary vessels): increased vessel permeability | pulmonary metastasis of py230 BC cells (py230 BC cells): enhanced pulmonary metastasis | M1 marker mRNAs (iNOS and TNFα) [7]: decrease | M2 marker mRNA expression (arginase, YM1, YM2) [7]: increase | infiltration of GFP+ MSCs (lung): preferential infiltration to perivascular space

Reference: patent publication US20220039907A1, “Inhibiting Post-Biopsy Inflammation and Metastasis” (The Board of Regents of the University of Oklahoma, priority 2020, published 2022)
